Assay results reported in patent US6004952A, “Micacocidin derivatives” (Shinogi & Co., Ltd., priority 1996, dated 1999).
≈ marks a conversion by molar mass, not a printed value. Read-outs that look alike come from different tables or passages of the source.

Key:
M. pneumoniae = test: MIC, liquid dilution method, Mycoplasma pneumoniae; conditions: Mycoplasmoides pneumoniae
[1] = Cytotoxicity to primary chicken kidney culture cells; type: cell-based; conditions: primary chicken kidney cells
[2] = test system: primary kidney culture cells; test: as above; type: cell-based; conditions: at the same concentration
Eimeria tenella = test: Growth inhibition activities to avian coccidium in primary chicken kidney cells; type: cell-based; conditions: for minimal effective concentration: Eimeria tenella
Experimental: The kidneys of SPF new born chicken was sterilely removed, which was treated with trypsin and the resultant primary kidney cells were cultured in 24-well plate. Monolayer culture after cultured for 3 days was treated simultaneously with compounds adjusted to predetermined concentration and sporozoit obtained by artificial excystation, which was cultured a 40° C. Premature and mature schizonts were observed under microscope, and the growth inhibition activities (suppression rate) for each treatment group were calculated at a proportion of the number of schizonts for the sporozoit-inoculated, compound-untreated control group (100%).

Serpulina hyodysenteriae = test: MIC, agar dilution method, anaerobic, Serpulina hyodysenteriae; type: cell-based, S. hyodysenteriae ATCC 27164; conditions: for MIC: Brachyspira hyodysenteriae, ATCC27164
Mycoplasma = test: MIC to Mycoplasmas (summary in words); type: cell-based
M. gallisepticum = test: MIC, liquid dilution method, Mycoplasma gallisepticum; conditions: Mycoplasmoides gallisepticum
S. aureus = test: MIC, agar dilution method, S. aureus; type: cell-based; conditions: Staphylococcus aureus, FDA209P; S. aureus FDA 209P
Clostridium perfringens = test: microbe, parasite or virus in culture; type: cell-based, C. perfringens ATCC 13124; conditions: for MIC: Clostridium perfringens, ATCC13124
mice spleen cells [3] = test: Suppression of reaction of mice spleen cells to lypopolysaccaride (LPS), in vitro (MTT); type: cell-based, BDF1 mice; conditions: for inhibition at 0.039 µg/mL: 39 ng/ml; for inhibition at 0.078 µg/mL: 78 ng/ml; for inhibition at 0.156 µg/mL: 156 ng/ml; for inhibition at 0.312 µg/mL: 312 ng/ml; for inhibition at 0.625 µg/mL: 625 ng/ml
Experimental: (§1) To each well of 96 well microtiter plate were added 5×10^5 spleen cells of BDF1 mice suspended in 0.1 ml of RPMI 1640 medium supplemented with 10% bovine fetus serum (supplemented with 2 mM sodium hydrogen carbonate, 50 Units/ml of penicillin, 50 μg/ml of streptomycin, and 5×10^-5 M of 2-mercaptoethanol), and then, 5 μg/ml of Concanavalin A (Con A) or 10 μg/ml of lypopolysaccaride (LPS) and various concentrations of test substance, of which final volume was adjusted to 0.2 ml. Test substances were dissolved in dimethylsulfoxide (DMSO), diluted with RPMI 1640 stated above, and added to the wells so that final concentration of the substances becomes less than 10000 ng/ml. The 96-well microtiter plates were cultured at 37° C. for 3 days in an incubator which was maintained at the humidity of 100%, 5% of carbon dioxide and 95% of air. After cultivation is completed, […] of 6 mg/ml solution of MTT {3-(4,5-dimethylthiazol-2yl)-2,5 diphenyltetrazoliumbromide} (Sigma) is added to each well, which is cultured at 37° C. for […] under the same conditions. After cultivation is completed, formazan formed is dissolved by adding 50 μl of a solution of 20% dodecyl sodium sulfonate (SDS) in 0.02N hydrochloric acid and kept standing at 37° C. for 24 hours. The absorbance (OD) of the formazan which was produced in proportion to the number of alive cells, was determined by using immunoreader equipped with 570 nm filter (see The Journal of Immunological Methods, Vol.65, 55-63, 1983).
(§2) Cell growth inhibition rate and IC50 value were calculated according to the correlation between the concentration and the absorbance for each substance.

M. hyopneumoniae = test: MIC, liquid dilution method, Mycoplasma hyopneumoniae; conditions: Mesomycoplasma hyopneumoniae
mice spleen cells [4] = test: Suppression of reaction of mice spleen cells to Concanavalin A, in vitro (MTT); type: cell-based, BDF1 mice; conditions: for inhibition at 0.039 µg/mL: 39 ng/ml; for inhibition at 0.078 µg/mL: 78 ng/ml; for inhibition at 0.156 µg/mL: 156 ng/ml; for inhibition at 0.312 µg/mL: 312 ng/ml; for inhibition at 0.625 µg/mL: 625 ng/ml
Experimental: as §1, §2

Candida albicans = test: Antifungal activity, micro-liquid dilution method, Candida albicans; type: cell-based, Candida albicans strain Ca-15; conditions: Candida albicans, 24 h, 30° C., read-out: Antifungal activities: IC50
Experimental: (§3) Antifungal activities of the compounds to Candida albicans (strain Ca-15) and Asperilhm fumigatus (strain MA), representative pathogenic fungi, were determined by micro-liquid dilution method using 96-well microplates. A fungal suspension stored under freezing was adjusted to 1×1 O^5 CFU/ml by medium, of which 100 μl portions were charged into each well. The compound of the present invention was dissolved in dimethylsulfoxide (DMSO). Using the resultant solution, 2-fold dilution series were prepared together with the fungal suspension charged into the wells. YNB medium and RPMI medium were used. After cultured for 24 hours at 30° C., evaluation was performed by detecting the turbidity (wave length: 595 nm) using microplate reader.

Aspergillus fumigatus = test: Antifungal activity, micro-liquid dilution method, Aspergillus fumigatus; type: cell-based, Aspergillus fumigatus strain MA; conditions: Aspergillus fumigatus, 24 h, 30° C., read-out: Antifungal activities: IC50
Experimental: as §3

[5] = more than 80% of suppression rate regarded as effective, read-out: Effective dose (growth inhibition)
[6] = read-out: Concentrations showing growth inhibition effects
[7] = Mus musculus, 72 h, LPS, read-out: Suppression rate
[8] = Mus musculus, 72 h, Con A, read-out: Suppression rate

SMILES	MIC (M. pneumoniae) [µg/mL]	MCC [1] [µg/mL]	cytotoxicity to the primary kidney culture cells [2]	growth inhibition activities (Eimeria tenella)	minimal effective concentration (Eimeria tenella; [5]) [µg/mL]	minimal effective concentration (Eimeria tenella; [6]) [µg/mL]	activity to Serpulina (Treponema) hyodysenteriae (Serpulina hyodysenteriae)	MIC (Serpulina hyodysenteriae) [µg/mL]	MICs to Mycoplasmas (Mycoplasma)	MIC (M. gallisepticum) [µg/mL]	activity to Clostridium perflingens (Clostridium perfringens)	suppression of the reaction to LPS of spleen cells (mice spleen cells [3])	inhibition at 0.312 µg/mL (mice spleen cells [3]; [7]) [%]	inhibition at 0.625 µg/mL (mice spleen cells [3]; [7]) [%]	IC50 (mice spleen cells [3]; Mus musculus, LPS) [µg/mL]	MIC (M. hyopneumoniae) [µg/mL]	suppression of the reaction to Con A of spleen cells (mice spleen cells [4])	inhibition at 0.312 µg/mL (mice spleen cells [4]; [8]) [%]	inhibition at 0.625 µg/mL (mice spleen cells [4]; [8]) [%]	IC50 (mice spleen cells [4]; Mus musculus, Con A) [µg/mL]	also measured
CCCCCc1cccc(OC)c1C1=NC(C2SCC(C(O)C(C)(C)C3=NC(C)(C(=O)O)CS3)N2C)CS1 (stereo not drawn) [Compound 7]	0.1 (≈ 0.172 µM)	10	did not show any cytotoxicity	strong growth inhibition activities	0.156	156	showed the activity	1.56 (≈ 2.69 µM)	low MICs	1.56 (≈ 2.69 µM)	showed the activity	suppressed	98.6	102	0.084 (≈ 0.145 µM)	0.1 (≈ 0.172 µM)	suppressed	98	101	0.129 (≈ 0.222 µM)	MIC (S. aureus): 1.56 µg/mL (≈ 2.69 µM); MIC (Clostridium perfringens): 0.1 µg/mL (≈ 0.172 µM); inhibition at 0.039 µg/mL (mice spleen cells [3]; [7]): 17.2%; inhibition at 0.078 µg/mL (mice spleen cells [3]; [7]): 42.5%; inhibition at 0.156 µg/mL (mice spleen cells [3]; [7]): 80%; inhibition at 0.039 µg/mL (mice spleen cells [4]; [8]): 10%; inhibition at 0.078 µg/mL (mice spleen cells [4]; [8]): 16.5%; inhibition at 0.156 µg/mL (mice spleen cells [4]; [8]): 60.7%
CCCCCc1cccc(OCOC)c1C1=NC(C2SCC(C(O)C(C)(C)C3=NC(C)(C(=O)OCOC)CS3)N2C)CS1 (stereo not drawn) [Compound 18]	0.025 (≈ 0.0382 µM)	> 10	–	–	10	–	showed the activity	–	low MICs	1.56 (≈ 2.39 µM)	showed the activity	suppressed	93.4	101	0.084 (≈ 0.128 µM)	0.05 (≈ 0.0765 µM)	suppressed	94.9	98.6	0.101 (≈ 0.154 µM)	inhibition at 0.039 µg/mL (mice spleen cells [3]; [7]): 27.4%; inhibition at 0.078 µg/mL (mice spleen cells [3]; [7]): 41.5%; inhibition at 0.156 µg/mL (mice spleen cells [3]; [7]): 74.6%; inhibition at 0.039 µg/mL (mice spleen cells [4]; [8]): 14.7%; inhibition at 0.078 µg/mL (mice spleen cells [4]; [8]): 25.7%; inhibition at 0.156 µg/mL (mice spleen cells [4]; [8]): 75.5%
CCCCCc1cccc(O)c1C1=NC(C2SCC(C(OCOC)C(C)(C)C3=NC(C)(C(=O)OCOC)CS3)N2C)CS1 (stereo not drawn) [Compound 19]	0.39 (≈ 0.596 µM)	10	did not show any cytotoxicity	strong growth inhibition activities	0.156	156	–	–	–	6.25 (≈ 9.56 µM)	–	–	–	–	–	1.56 (≈ 2.39 µM)	–	–	–	–	–
CCCCCc1cccc(O)c1C1=NC(C2SCC(C(O)C(C)(C)C3=NC(C)(C(=O)OCOC)CS3)N2C)CS1 (stereo not drawn) [Compound 20]	≤ 0.00625	> 10	–	–	0.625	–	showed the activity	1.56 (≈ 2.56 µM)	low MICs	0.1 (≈ 0.164 µM)	showed the activity	suppressed	2.1	98.8	0.38 (≈ 0.623 µM)	0.025 (≈ 0.041 µM)	suppressed	0	102	0.506 (≈ 0.83 µM)	IC50 (Candida albicans; RPMI medium): 3.2 µg/mL (≈ 5.25 µM); IC50 (Candida albicans; YNB medium): > 100 µg/mL; MIC (Clostridium perfringens): 3.13 µg/mL (≈ 5.13 µM); inhibition at 1.25 µg/mL (mice spleen cells [3]; Mus musculus, 72 h, LPS, 1250 ng/ml, read-out: Suppression rate): 98.2%; inhibition at 2.5 µg/mL (mice spleen cells [3]; Mus musculus, 72 h, LPS, 2500 ng/ml, read-out: Suppression rate): 96.3%; IC50 (Aspergillus fumigatus; RPMI medium): > 100 µg/mL; IC50 (Aspergillus fumigatus; YNB medium): > 100 µg/mL; inhibition at 1.25 µg/mL (mice spleen cells [4]; Mus musculus, 72 h, Con A, 1250 ng/ml, read-out: Suppression rate): 101%; inhibition at 2.5 µg/mL (mice spleen cells [4]; Mus musculus, 72 h, Con A, 2500 ng/ml, read-out: Suppression rate): 101%
